Results from US9751886B2, “4-amino-6-phenyl-6,7-dihydro[1,2,3]triazolo[1,5-A]pyrazine derivatives as inhibitors of beta-secretase (BACE)” (Janssen Pharmaceutica NV, priority 2013, dated 2017).

What was measured:
[1] = target: recombinant BACE1 protein (Homo sapiens (Human), UniProt P56817); test: BACE1 Biochemical FRET based assay - Method 2; details: 0.04 μg/ml BACE1, 20 μM substrate, 450 min, pH 5.0
From the text: (§1) This assay is a Fluorescence Resonance Energy Transfer Assay (FRET) based assay. The substrate for this assay is an APP derived 13 amino acids peptide that contains the ‘Swedish’ Lys-Met/Asn-Leu mutation of the amyloid precursor protein (APP) beta-secretase cleavage site. This substrate also contains two fluorophores: (7-methoxycoumarin-4-yl) acetic acid (Mca) is a fluorescent donor with excitation wavelength at 320 nm and emission at 405 nm and 2,4-Dinitrophenyl (Dnp) is a proprietary quencher acceptor. […] Upon cleavage by BACE1, the fluorophore Mca is separated from the quenching group Dnp, restoring the full fluorescence yield of the donor. The increase in fluorescence is linearly related to the rate of proteolysis.
Briefly in a 384-well format recombinant BACE1 protein in a final concentration of 0.04 μg/ml is incubated for 450 minutes at room temperature with 20 μM substrate in incubation buffer (50 mM Citrate buffer pH 5.0, 0.05% PEG) in the presence of compound or DMSO. Next the amount of proteolysis is directly measured by fluorescence measurement (excitation at 320 nm and emission at 405 nm) at different incubation times (0, 30, 60, 90, 120 and 450 min). For every experiment a time curve (every 30 min between 0 min and 120 min) is used to determine the time where we find the lowest basal signal of the high control. The signal at this time (Tx) is used to subtract from the signal at 450 min. Results are expressed in RFU, as difference between T450 and Tx.

[2] = test system: Abeta 1-42 secreted by human neuroblastoma SKNBE2 cells expressing wild type hAPP695; test: BACE1 cellular αLisa assay in SKNBE2 cells, Abeta 1-42; type: cell-based; details: 18 hours incubation; for IC50: Homo sapiens, read-out: Cellular αLisa assay in SKNBE2 cells Abeta 42 pIC50 (converted)
Procedure: (§2) In two αLisa assays the levels of Abeta total and Abeta 1-42 produced and secreted into the medium of human neuroblastoma SKNBE2 cells are quantified. The assay is based on the human neuroblastoma SKNBE2 expressing the wild type Amyloid Precursor Protein (hAPP695). The compounds are diluted and added to these cells, incubated for 18 hours and then measurements of Abeta 1-42 and Abeta total are taken. Abeta total and Abeta 1-42 are measured by sandwich αLisa. αLisa is a sandwich assay using biotinylated antibody AbN/25 attached to streptavidin coated beads and antibody Ab4G8 or cAb42/26 conjugated acceptor beads for the detection of Abeta total and Abeta 1-42 respectively. In the presence of Abeta total or Abeta 1-42, the beads come into close proximity. The excitation of the donor beads provokes the release of singlet oxygen molecules that trigger a cascade of energy transfer in the acceptor beads, resulting in light emission.

[3] = test system: Abeta total secreted by human neuroblastoma SKNBE2 cells expressing wild type hAPP695; test: BACE1 cellular αLisa assay in SKNBE2 cells, Abeta total; type: cell-based; details: 18 hours incubation; for IC50: Homo sapiens, read-out: Cellular αLisa assay in SKNBE2 cells Abetatotal pIC50 (converted)
Procedure: as §2

[4] = target: recombinant BACE2 protein (Homo sapiens (Human), UniProt Q9Y5Z0); test: BACE2 Biochemical FRET based assay; details: 0.4 μg/ml BACE2, 10 μM substrate, 450 min, pH 5.0
Sequence of recombinant BACE2 protein (Q9Y5Z0 63-518): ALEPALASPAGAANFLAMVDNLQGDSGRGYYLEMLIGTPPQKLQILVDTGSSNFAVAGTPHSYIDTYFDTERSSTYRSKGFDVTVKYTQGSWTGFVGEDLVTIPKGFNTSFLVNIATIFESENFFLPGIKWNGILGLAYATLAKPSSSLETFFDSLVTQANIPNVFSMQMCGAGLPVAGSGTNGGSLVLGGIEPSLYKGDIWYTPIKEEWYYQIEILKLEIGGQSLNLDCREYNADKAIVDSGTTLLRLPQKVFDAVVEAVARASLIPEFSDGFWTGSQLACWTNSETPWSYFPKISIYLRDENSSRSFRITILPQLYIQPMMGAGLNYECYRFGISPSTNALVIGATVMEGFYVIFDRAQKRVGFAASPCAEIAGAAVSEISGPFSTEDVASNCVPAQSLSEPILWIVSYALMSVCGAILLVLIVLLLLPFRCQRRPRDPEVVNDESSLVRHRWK
From the text: as §1, with “assay” for “assay is an APP derived 13 amino acids peptide that”, “the beta-secretase,” for “BACE1,”
Briefly in a 384-well format recombinant BACE2 protein in a final concentration of 0.4 μg/ml is incubated for 450 minutes at room temperature with 10 μM substrate in incubation buffer (50 mM Citrate buffer pH 5.0, 0.05% PEG, no DMSO) in the absence or presence of compound. Next the amount of proteolysis is directly measured by fluorescence measurement at T=0 and T=450 (excitation at 320 nm and emission at 405 nm). Results are expressed in RFU (Relative Fluorescence Units), as difference between T450 and TO.

[5] = test system: brain levels of soluble Aβ42, Aβ40; test: In vivo Aβ lowering in non-transgenic rodents (MSD electrochemiluminescence); design: species or system mouse; details: untreated control = 100
From the text: To determine whether acute administration of an Aβ lowering agent would reduce Aβ levels in vivo, non-transgenic rodents, e.g. mice or rats were used. Animals treated with the Aβ lowering agent were examined and compared to those untreated or treated with vehicle and brain levels of soluble Aβ42, Aβ40, Aβ38, and Aβ37 were quantitated by Meso Scale Discovery's (MSD) electrochemiluminescence detection technology. Treatment periods varied from hours (h) to days and were adjusted based on the results of the Aβ lowering once a time course of onset of effect could be established.
A typical protocol for measuring Aβ lowering in vivo is shown but it is only one of many variations that could be used to optimize the levels of detectable A. For example, Aβ lowering compounds were formulated in 20% of Captisol® (a sulfo-butyl ether of β-cyclodextrin) in water or 20% hydroxypropyl β cyclodextrin. The Aβ lowering agents were administered as a single oral dose or by any acceptable route of administration to overnight fasted animals. […]
Blood was collected by decapitation and exsanguinations in EDTA-treated collection tubes. Blood was centrifuged at 1900 g for 10 minutes (min) at 4° C. and the plasma recovered and flash frozen for later analysis. The brain was removed from the cranium and hindbrain. The cerebellum was removed and the left and right hemisphere were separated. The left hemisphere was stored at −18° C. for quantitative analysis of test compound levels. The right hemisphere was rinsed with phosphate-buffered saline (PBS) buffer and immediately frozen on dry ice and stored at −80° C. until homogenization for biochemical assays.
Mouse brains from non-transgenic animals were resuspended in 8 volumes of 0.4% DEA (diethylamine)/50 mM NaCl containing protease inhibitors (Roche-11873580001 or 04693159001) per gram of tissue, e.g. for 0.158 g brain, add 1.264 ml of 0.4% DEA. All samples were homogenized in the FastPrep-24 system (MP Biomedicals) using lysing matrix D (MPBio #6913-100) at 6 m/s for 20 seconds. Homogenates were centrifuged at 20800×g for 5 min and supernatants collected. Supernatants were centrifuged at 221.300×g for 50 min. The resulting high speed supernatants were then transferred to fresh eppendorf tubes. Nine parts of supernatant were neutralized with 1 part 0.5 M Tris-HCl pH 6.8 and used to quantify Aβ.
To quantify the amount of Aβ42, Aβ40, Aβ38, and Aβ37 in the soluble fraction of the brain homogenates, simultaneous specific detection of Aβ42, Aβ40, Aβ38, and Aβ37 was performed using MSD's electro-chemiluminescence multiplex detection technology. In this assay purified monoclonal antibodies specific for Abeta37 (JRD/Aβ37/3), Abeta38 (J&JPRD/Aβ38/5), Abeta40 (JRF/cAβ40/28), and Abeta42 (JRF/cAβ(342/26) were coated on MSD 4-plex plates. Briefly, the standards (a dilution of synthetic Aβ42, Aβ40, Aβ38, and Aβ37) were prepared in 1.5 ml Eppendorf tube in Ultraculture, with final concentrations ranging from 10000 to 0.3 pg/m. The samples and standards were co-incubated with Sulfo-tag labelled JRF/rAβ/2 antibody to the N-terminus of Aβ as detector antibody. 50 μl of conjugate/sample or conjugate/standards mixtures were then added to the antibody-coated plate. The plate was allowed to incubate overnight at 4° C. in order to allow formation of the antibody-amyloid complex. Following this incubation and subsequent wash steps the assay was finished by adding read buffer according to the manufacturer's instructions (Meso Scale Discovery, Gaitherburg, Md.).
The SULFO-TAG emits light upon electrochemical stimulation initiated at the electrode. MSD Sector instrument SI6000 was used for signal read-out.
The results are shown in Table 8 (value for untreated animals as control (Ctrl) was set at 100): […]

[6] = dose 10, p.o., 2 h after administration
[7] = dose 10, p.o., 4 h after administration
[8] = dose 10, s.c., 2 h after administration
[9] = dose 10, s.c., 4 h after administration

Sequence of recombinant BACE1 protein (P56817 46-501): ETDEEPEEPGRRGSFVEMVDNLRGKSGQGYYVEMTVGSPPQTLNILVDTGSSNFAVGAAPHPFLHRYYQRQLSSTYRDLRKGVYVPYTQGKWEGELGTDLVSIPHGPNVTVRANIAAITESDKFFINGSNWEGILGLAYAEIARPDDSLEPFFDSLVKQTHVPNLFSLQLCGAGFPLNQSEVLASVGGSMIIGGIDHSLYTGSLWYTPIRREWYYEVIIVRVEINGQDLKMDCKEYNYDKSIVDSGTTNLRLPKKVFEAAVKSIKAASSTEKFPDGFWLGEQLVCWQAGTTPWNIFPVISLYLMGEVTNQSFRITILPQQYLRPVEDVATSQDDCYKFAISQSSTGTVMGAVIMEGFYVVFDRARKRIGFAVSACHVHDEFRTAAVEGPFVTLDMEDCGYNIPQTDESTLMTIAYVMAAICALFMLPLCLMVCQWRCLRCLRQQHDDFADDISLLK

Row | BACE1 Biochemical FRET based assay - Method 2 pIC50 [1] | BACE2 Biochemical FRET based assay pIC50 [4] | IC50 [2] | IC50 [3] | SMILES | other results
1 | 8.52 | 7.78 |  |  | C[C@@]1(c2cc(NC(=O)c3cnc(OCF)cn3)ccc2F)Cn2nncc2C(N)=N1 [Compound 7, N-{3-[(6R)-4-amino-6-methyl-6,7-dihydro[1,2,3]triazolo[1,5-a]pyrazin-6-yl]-4-fluoropheny}-5-(fluoromethoxy)pyrazine-2-carboxamide] | Cellular αLisa assay in SKNBE2 cells Abeta 42 pIC50 [2]: 8.87; Cellular αLisa assay in SKNBE2 cells Abetatotal pIC50 [3]: 8.86
2 | 8.39 | 8.49 | 24.5 nM | 24.5 nM | NC1=N[C@](CF)(c2cc(NC(=O)c3ccc(F)cn3)ccc2F)Cn2nncc21 [Compound 10, N-{3-[(6R)-4-amino-6-(fluoromethyl)-6,7-dihydro[1,2,3]triazolo[1,5-a]pyrazin-6-yl]-4-fluorophenyl}-5-fluoropyridine-2-carboxamide] | Aβ40 (% vs Ctrl)_Mean [5, 6]: 95 % vs Ctrl; Aβ42 (% vs Ctrl)_Mean [5, 6]: 79 % vs Ctrl; Aβ40 (% vs Ctrl)_Mean [5, 7]: 116 % vs Ctrl; Aβ42 (% vs Ctrl)_Mean [5, 7]: 87 % vs Ctrl
3 | 6.12 | 6.3 | 4170 nM | 4470 nM | NC1=N[C@@](CF)(c2cc(NC(=O)c3ccc(F)cn3)ccc2F)Cn2nncc21 [Compound 11, N-{3-[(6S)-4-amino-6-(fluoromethyl)-6,7-dihydro[1,2,3]triazolo[1,5-a]pyrazin-6-yl]-4-fluorophenyl}-5-fluoropyridine-2-carboxamide] | 
4 | 8.51 | 7.22 |  |  | C[C@@]1(c2cc(NC(=O)c3cnc(OCC(F)(F)F)cn3)ccc2F)Cn2nncc2C(N)=N1 [Compound 6, N-{3-[(6R)-4-amino-6-methyl-6,7-dihydro[1,2,3]triazolo[1,5-a]pyrazin-6-yl]-4-fluoropheny}-5-(2,2,2-trifluoroethoxy)pyrazine-2-carboxamide] | Cellular αLisa assay in SKNBE2 cells Abeta 42 pIC50 [2]: 8.28; Cellular αLisa assay in SKNBE2 cells Abetatotal pIC50 [3]: 8.32
5 |  |  | 1.1 nM | 1.05 nM | C[C@@]1(c2cc(NC(=O)c3ccc(C#N)cn3)ccc2F)Cn2nncc2C(N)=N1 [Compound 2, N-{3-[(6R)-4-Amino-6-methyl-6,7-dihydro[1,2,3]triazolo[1,5-a]pyrazin-6-yl]-4-fluorophenyl}-5-cyanopyridine-2-carboxamide] | Aβ40 (% vs Ctrl)_Mean [5, 8]: 44 % vs Ctrl; Aβ42 (% vs Ctrl)_Mean [5, 8]: 44 % vs Ctrl; Aβ40 (% vs Ctrl)_Mean [5, 9]: 61 % vs Ctrl; Aβ42 (% vs Ctrl)_Mean [5, 9]: 50 % vs Ctrl
6 | 8.72 | 8.73 | 3.72 nM | 3.09 nM | C[C@@]1(c2cc(NC(=O)c3nn(C(F)F)cc3Cl)ccc2F)Cn2nncc2C(N)=N1 [Compound 5, N-{3-[(6R)-4-Amino-6-methyl-6,7-dihydro[1,2,3]triazolo[1,5-a]pyrazin-6-yl]-4-fluorophenyl}-4-chloro-1-(difluoromethyl)-1H-pyrazole-3-carboxamide] | 
7 |  |  | 57.5 nM | 56.2 nM | NC1=NC(CF)(c2cc(NC(=O)c3ccc(F)cn3)ccc2F)Cn2nncc21 (racemic) [Compound 9, (rac)-N-{3-[4-amino-6-(fluoromethyl)-6,7-dihydro[1,2,3]triazolo[1,5-a]pyrazin-6-yl]-4-fluorophenyl}-5-fluoropyridine-2-carboxamide] | IC50 ([1]; read-out: BACE1 Biochemical FRET based assay - Method 2 pIC50 (converted)): 8.32 nM; IC50 ([4]; read-out: BACE2 Biochemical FRET based assay pIC50 (converted)): 8.32 nM
8 | 8.36 |  | 4.68 nM | 4.47 nM | C[C@@]1(c2cc(NC(=O)c3ccc(F)cn3)cc(F)c2F)Cn2nncc2C(N)=N1 [Compound 8, N-{3-[(6R)-4-Amino-6-methyl-6,7-dihydro[1,2,3]triazolo[1,5-a]pyrazin-6-yl]-4,5-difluorophenyl}-5-fluoropyridine-2-carboxamide] | Aβ40 (% vs Ctrl)_Mean [5, 8]: 56 % vs Ctrl; Aβ42 (% vs Ctrl)_Mean [5, 8]: 56 % vs Ctrl; Aβ40 (% vs Ctrl)_Mean [5, 9]: 136 % vs Ctrl; Aβ42 (% vs Ctrl)_Mean [5, 9]: 105 % vs Ctrl
